Measurements from PubChem BioAssay (NCI).
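Compound exposure: 48 hours, 5 concentrations, 96-well plates. Here, GI50 denotes the concentration required for 50% inhibition of growth. TGI is the concentration that stops growth completely.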

Key:
Experiment in all cases: NCI tumour cell line growth inhibition, 48 h
HT29 colon = tested on: HT29 colon
CAKI-1 renal = tested on: CAKI-1 renal
A549 NSCLC = tested on: A549 NSCLC
CCRF-CEM leukemia = tested on: CCRF-CEM leukemia
HOP-62 NSCLC = tested on: HOP-62 NSCLC
HS 578T breast = tested on: HS 578T breast
786-0 renal = tested on: 786-0 renal
NCI-H460 lung = tested on: NCI-H460 lung
SNB-75 CNS = tested on: SNB-75 CNS
SK-MEL-2 melanoma = tested on: SK-MEL-2 melanoma
SK-OV-3 ovarian = tested on: SK-OV-3 ovarian
SW-620 colon = tested on: SW-620 colon
TK-10 renal = tested on: TK-10 renal
HCT-15 colon = tested on: HCT-15 colon
SK-MEL-5 melanoma = tested on: SK-MEL-5 melanoma
BT-549 breast = tested on: BT-549 breast
MALME-3M melanoma = tested on: MALME-3M melanoma
MDA-MB-231 breast = tested on: MDA-MB-231 breast
IGROV1 ovarian = tested on: IGROV1 ovarian
OVCAR-5 ovarian = tested on: OVCAR-5 ovarian
OVCAR-4 ovarian = tested on: OVCAR-4 ovarian
SF-295 CNS = tested on: SF-295 CNS
OVCAR-8 ovarian = tested on: OVCAR-8 ovarian
COLO 205 colon = tested on: COLO 205 colon
K-562 leukemia = tested on: K-562 leukemia
ACHN renal = tested on: ACHN renal
OVCAR-3 ovarian = tested on: OVCAR-3 ovarian
RPMI-8226 leukemia = tested on: RPMI-8226 leukemia
LOX IMVI melanoma = tested on: LOX IMVI melanoma
HOP-92 NSCLC = tested on: HOP-92 NSCLC
KM12 colon = tested on: KM12 colon
SF-268 CNS = tested on: SF-268 CNS
MCF7 breast = tested on: MCF7 breast
EKVX NSCLC = tested on: EKVX NSCLC
HL-60(TB) leukemia = tested on: HL-60(TB) leukemia
U251 CNS = tested on: U251 CNS
UACC-62 melanoma = tested on: UACC-62 melanoma
MDA-MB-468 breast = tested on: MDA-MB-468 breast
MDA-MB-435 = tested on: MDA-MB-435
SK-MEL-28 melanoma = tested on: SK-MEL-28 melanoma
NCI-H23 lung = tested on: NCI-H23 lung
SF-539 CNS = tested on: SF-539 CNS
NCI-H522 lung = tested on: NCI-H522 lung
M14 melanoma = tested on: M14 melanoma
UACC-257 melanoma = tested on: UACC-257 melanoma
A498 renal = tested on: A498 renal
UO-31 renal = tested on: UO-31 renal
NCI-H226 lung = tested on: NCI-H226 lung
HCC-2998 colon = tested on: HCC-2998 colon
SNB-19 CNS = tested on: SNB-19 CNS
HCT-116 colon = tested on: HCT-116 colon
SN12C renal = tested on: SN12C renal
SR leukemia = tested on: SR leukemia
MOLT-4 leukemia = tested on: MOLT-4 leukemia
PC-3 prostate = tested on: PC-3 prostate
DU-145 prostate = tested on: DU-145 prostate
T-47D breast = tested on: T-47D breast
RXF 393 renal = tested on: RXF 393 renal

Compound: O=C(/C=C/c1cccc(Br)c1)c1nc2ccccc2n1Cc1ccc(F)cc1
- GI50 (HT29 colon): 5.23 µM
- TGI (HT29 colon): 20.6 µM
- GI50 (CAKI-1 renal): 5.72 µM
- TGI (CAKI-1 renal): 32.5 µM
- GI50 (A549 NSCLC): 14.2 µM
- TGI (A549 NSCLC): 96.3 µM
- GI50 (CCRF-CEM leukemia): 3.83 µM
- TGI (CCRF-CEM leukemia): > 100 µM
- GI50 (HOP-62 NSCLC): 14.6 µM
- TGI (HOP-62 NSCLC): 38.8 µM
- GI50 (HS 578T breast): 9.74 µM
- TGI (HS 578T breast): > 100 µM
- GI50 (786-0 renal): 11.8 µM
- TGI (786-0 renal): 26.2 µM
- GI50 (NCI-H460 lung): 4.65 µM
- TGI (NCI-H460 lung): 20 µM
- GI50 (SNB-75 CNS): 3.24 µM
- TGI (SNB-75 CNS): 68.1 µM
- GI50 (SK-MEL-2 melanoma): 11.6 µM
- TGI (SK-MEL-2 melanoma): 29.6 µM
- GI50 (SK-OV-3 ovarian): 62.4 µM
- TGI (SK-OV-3 ovarian): > 100 µM
- GI50 (SW-620 colon): 3.8 µM
- TGI (SW-620 colon): 14.6 µM
- GI50 (TK-10 renal): 17.1 µM
- TGI (TK-10 renal): 57.5 µM
- GI50 (HCT-15 colon): 3.65 µM
- TGI (HCT-15 colon): 14.6 µM
- GI50 (SK-MEL-5 melanoma): 10.3 µM
- TGI (SK-MEL-5 melanoma): 23.2 µM
- GI50 (BT-549 breast): 3.87 µM
- TGI (BT-549 breast): 16.5 µM
- GI50 (MALME-3M melanoma): 11.6 µM
- TGI (MALME-3M melanoma): 26 µM
- GI50 (MDA-MB-231 breast): 6.59 µM
- TGI (MDA-MB-231 breast): 27.2 µM
- GI50 (IGROV1 ovarian): 8.02 µM
- TGI (IGROV1 ovarian): 32.4 µM
- GI50 (OVCAR-5 ovarian): 11.8 µM
- TGI (OVCAR-5 ovarian): 27.7 µM
- GI50 (OVCAR-4 ovarian): 14.5 µM
- TGI (OVCAR-4 ovarian): > 100 µM
- GI50 (SF-295 CNS): 11.3 µM
- TGI (SF-295 CNS): 27.1 µM
- GI50 (OVCAR-8 ovarian): 5.05 µM
- TGI (OVCAR-8 ovarian): 27.1 µM
- GI50 (COLO 205 colon): 16.6 µM
- TGI (COLO 205 colon): 36.2 µM
- GI50 (K-562 leukemia): 3.75 µM
- TGI (K-562 leukemia): > 100 µM
- GI50 (ACHN renal): 13.3 µM
- TGI (ACHN renal): 40.6 µM
- GI50 (OVCAR-3 ovarian): 4.17 µM
- TGI (OVCAR-3 ovarian): 16.9 µM
- GI50 (RPMI-8226 leukemia): 4.02 µM
- TGI (RPMI-8226 leukemia): > 100 µM
- GI50 (LOX IMVI melanoma): 2.87 µM
- TGI (LOX IMVI melanoma): 10.5 µM
- GI50 (HOP-92 NSCLC): 3.26 µM
- TGI (HOP-92 NSCLC): 35 µM
- GI50 (KM12 colon): 5.52 µM
- TGI (KM12 colon): 22.4 µM
- GI50 (SF-268 CNS): 16.7 µM
- TGI (SF-268 CNS): > 100 µM
- GI50 (MCF7 breast): 2.83 µM
- TGI (MCF7 breast): 16.7 µM
- GI50 (EKVX NSCLC): 11.5 µM
- TGI (EKVX NSCLC): 28.6 µM
- GI50 (HL-60(TB) leukemia): 4.06 µM
- TGI (HL-60(TB) leukemia): 26.7 µM
- GI50 (U251 CNS): 5.49 µM
- TGI (U251 CNS): 20.3 µM
- GI50 (UACC-62 melanoma): 4.67 µM
- TGI (UACC-62 melanoma): 18.2 µM
- GI50 (MDA-MB-468 breast): 5.02 µM
- TGI (MDA-MB-468 breast): 18.2 µM
- GI50 (MDA-MB-435): 3.87 µM
- TGI (MDA-MB-435): 16.2 µM
- GI50 (SK-MEL-28 melanoma): 9.33 µM
- TGI (SK-MEL-28 melanoma): 23.1 µM
- GI50 (NCI-H23 lung): 9.04 µM
- TGI (NCI-H23 lung): 26 µM
- GI50 (SF-539 CNS): 13.6 µM
- TGI (SF-539 CNS): 26.8 µM
- GI50 (NCI-H522 lung): 10.9 µM
- TGI (NCI-H522 lung): 32.7 µM
- GI50 (M14 melanoma): 10.6 µM
- TGI (M14 melanoma): 26.1 µM
- GI50 (UACC-257 melanoma): 10.7 µM
- TGI (UACC-257 melanoma): 31.1 µM
- GI50 (A498 renal): 54.3 µM
- TGI (A498 renal): > 100 µM
- GI50 (UO-31 renal): 5.17 µM
- TGI (UO-31 renal): 18.9 µM
- GI50 (NCI-H226 lung): 17 µM
- TGI (NCI-H226 lung): 44 µM
- GI50 (HCC-2998 colon): 11.4 µM
- TGI (HCC-2998 colon): 24.2 µM
- GI50 (SNB-19 CNS): 11.2 µM
- TGI (SNB-19 CNS): 25.3 µM
- GI50 (HCT-116 colon): 3.79 µM
- TGI (HCT-116 colon): 14.2 µM
- GI50 (SN12C renal): 14.9 µM
- TGI (SN12C renal): 40.1 µM
- GI50 (SR leukemia): 4.73 µM
- TGI (SR leukemia): > 100 µM
- GI50 (MOLT-4 leukemia): 3.85 µM
- TGI (MOLT-4 leukemia): > 100 µM
- GI50 (PC-3 prostate): 6.42 µM
- TGI (PC-3 prostate): 34.3 µM
- GI50 (DU-145 prostate): 12.6 µM
- TGI (DU-145 prostate): 47.6 µM
- GI50 (T-47D breast): 5.01 µM
- TGI (T-47D breast): 84.2 µM
- GI50 (RXF 393 renal): 4.04 µM
- TGI (RXF 393 renal): 15.9 µM
